Experimental data from publication PMC9653339, “Revisiting the anticancer properties of phosphane(9-ribosylpurine-6-thiolato)gold(I) complexes and their 9H-purine precursors” (Journal of Biological Inorganic Chemistry, 2022).

Legend:
[1] = test system: HCT-116^p53−/− (p53 knockout mutant) colon carcinoma cells; test: MTT cell viability assay, HCT-116 p53-/-; format: cell-based, human; conditions: 72 h
Protocol: (§1) Cells were seeded in 96-well microtiter plates (Sarstedt) with a cell density of 0.05 × 10^6 cells per ml and 100 µL per well and incubated for 24 h. A dilution series of test compounds was added to the wells, ranging in twelve steps from 100 µM to 5 nM. As a control, equal amounts of DMSO were added. Treated cells were further incubated for 72 h. Then, 12.5 µL per well of MTT solution (0.05% in phosphate-buffered saline (PBS)) was added, followed by another 2 h of incubation. The plates were centrifuged, the medium was discarded and 25 µL per well of SDS solution in DMSO (10% SDS, 0.6% AcOH in DMSO) was added to dissolve the formazan. The plates were incubated for a further hour. Absorbances at 570 nm and 630 nm were measured using a plate reader (Tecan). Background absorbance (630 nm) was subtracted from the formazan signal (570 nm). The resulting absorbance was directly proportional to the amount of viable cells. The control was normalized to 100% viable cells and viability of cells treated with test compounds was calculated accordingly. IC50 values were calculated based on a sigmoidal fit model using GraphPad Prism. Means and SD were calculated from at least four independent experiments.

[2] = test system: MCF-7 mamma carcinoma cells; test: MTT cell viability assay, MCF-7; format: cell-based, human; conditions: 72 h, read-out: IC50 MCF7
Protocol: as §1, with “All complexes stable in solution were investigated for their anti-proliferative effect on nine human cancer cell lines, using the MTT-based cell viability assay. Cells” for “Cells”

[3] = test system: EA.hy926 endothelial hybrid cells; test: MTT cell viability assay, EA.hy926; format: cell-based, human; conditions: 72 h
Protocol: as §1, with “All complexes stable in solution were investigated for their anti-proliferative effect on nine human cancer cell lines, using the MTT-based cell viability assay. Cells” for “Cells”

[4] = test system: 518A2 melanoma cells; test: MTT cell viability assay, 518A2; format: cell-based, human; conditions: 72 h
Protocol: as §1, with “All complexes stable in solution were investigated for their anti-proliferative effect on nine human cancer cell lines, using the MTT-based cell viability assay. Cells” for “Cells”

[5] = test system: HeLa cervix carcinoma cells; test: MTT cell viability assay, HeLa; format: cell-based, human; conditions: 72 h
Protocol: as §1, with “All complexes stable in solution were investigated for their anti-proliferative effect on nine human cancer cell lines, using the MTT-based cell viability assay. Cells” for “Cells”

[6] = test system: EA.hy926 cells; test: Tube formation assay; format: cell-based, human; conditions: 5 µM (CA-4 0.01 µM)
Protocol: EA.hy926 cells were cultured overnight in endothelial medium (37 °C, 95% humidity, 5% CO2) instead of DMEM. In addition, Matrigel was thawed on ice in the refrigerator. Pipette tips and 96-well plates were stored at − 20 °C overnight. The next day, 30 µL of Matrigel was added to each well bubble-free and the well plate was incubated for approximately 45 min (37 °C, 95% humidity, 5% CO2). Subsequently, 100 µL of cell suspension was added to each well at a concentration of 0.4–0.5 × 10^6 cells/mL onto the Matrigel-treated wells and the substances were added in tenfold pre-dilution. This was followed by incubation for approximately 6 h, until tubes formed in the negative control with DMSO. At this point, documentation under the microscope took place.

[7] = test system: HCT-116^wt colon carcinoma cells; test: MTT cell viability assay, HCT-116wt; format: cell-based, human; conditions: 72 h
Protocol: as §1

[8] = test system: human adult dermal fibroblasts HDFa; test: MTT cell viability assay, HDFa; format: cell-based; conditions: 72 h, non-malignant fibroblasts
Protocol: as §1, with “All complexes stable in solution were investigated for their anti-proliferative effect on nine human cancer cell lines, using the MTT-based cell viability assay. Cells” for “Cells”

[9] = test system: mdr MCF-7^Topo mamma carcinoma cells; test: MTT cell viability assay, MCF-7Topo; format: cell-based, human; conditions: 72 h, read-out: IC50 MCF7^Topo
Protocol: as §1, with “All complexes stable in solution were investigated for their anti-proliferative effect on nine human cancer cell lines, using the MTT-based cell viability assay. Cells” for “Cells”

[10] = test system: mdr KB-V1^Vbl cervix carcinoma cells; test: MTT cell viability assay, KB-V1 (with and without verapamil); format: cell-based, human; conditions: 72 h, without verapamil
Protocol: as §1, with “All complexes stable in solution were investigated for their anti-proliferative effect on nine human cancer cell lines, using the MTT-based cell viability assay. Cells” for “Cells”

[11] = test system: HT-29 colon carcinoma cells; test: MTT cell viability assay, HT-29; format: cell-based, human; conditions: 72 h
Protocol: as §1, with “All complexes stable in solution were investigated for their anti-proliferative effect on nine human cancer cell lines, using the MTT-based cell viability assay. Cells” for “Cells”

[12] = test system: U-87 glioblastoma cells; test: MTT cell viability assay, U-87; format: cell-based, human; conditions: 72 h
Protocol: as §1, with “All complexes stable in solution were investigated for their anti-proliferative effect on nine human cancer cell lines, using the MTT-based cell viability assay. Cells” for “Cells”

[13] = Stability by NMR in DMSO-d6 + 5% D2O; format: physicochemical; conditions: for Stability (31P NMR): DMSO-d6 with additional D2O, three days
Description: In a further corroboration of the complex stability, the similarity of the chalcogens sulfur and selenium was exploited. The selenolato complex 10 was synthesized and examined for its stability under identical conditions. Since ^77Se is a 1/2 spin nucleus with roughly 8% natural abundance, its compounds can be investigated directly. Depending on whether a break in the Se–Au or the Au–PR3 bond would occur, the shift would change by several hundred ppm and serve as unequivocal evidence. […] In addition, we investigated the stability of complexes 1 and 5 as representatives of the series of purines and purine nucleosides, respectively, in cell culture medium by UV/Vis spectroscopy.

[14] = test system: caspase 3/7 in 518A2 melanoma cells; test: Caspase 3/7 activation; format: cell-based, human; conditions: 518A2 cells, 10 µM, 6 h
Protocol: The assay was conducted, following manufacturer’s instructions using the Cell Meter Caspase 3/7 activity apoptosis assay kit (AAT Bioquest). Briefly, 518A2 melanoma cells were seeded in 96-well flat black microtiter plates with a density of 0.22 × 10^6 cells per mL and 90 µL per well. After 24 h of incubation, 10 µL per well of tenfold diluted test compounds was added, and the cells were incubated for a further 6 h. Subsequently, 100 µL per well of Caspase 3/7 substrate working solution was added and incubated for 1 h in the dark at room temperature. The fluorescence was measured using a micro-plate reader (Tecan) at ex/em = 490/525 nm.

SMILES	IC50 [1] [µM]	IC50 [2] [µM]	IC50 [3] [µM]	IC50 [4] [µM]	IC50 [5] [µM]	Inhibition of tube formation [6]	IC50 [7] [µM]	IC50 [8] [µM]	IC50 [9] [µM]	IC50 [10] [µM]	IC50 [11] [µM]	IC50 [12] [µM]	Stability (31P NMR) [13]	Caspase 3/7 activity [14]	Stability (77Se NMR) ([13]; DMSO-d6 + 5% D2O, identical conditions)
CSc1ncnc2c1ncn2[C@@H]1O[C@H](CO)[C@@H](O)[C@H]1O [6-MMR, 6-methylmercaptopurine riboside, reference compound]	0.05 ± 0.001	0.09 ± 0.003	0.11 ± 0.001	1.4 ± 0.12	0.0056 ± 0.0003	inhibitory effects	0.1 ± 0.008	5.8 ± 0.46							
COc1ccc(/C=C\c2cc(OC)c(OC)c(OC)c2)cc1O [CA-4, combretastatin A-4]						Complete inhibition of tube formation									
c1ccc([PH]([Au][S]c2ncnc3[nH]cnc23)(c2ccccc2)c2ccccc2)cc1 [Complex 1, (1,7-Dihydro-6H-purine-6-thiolato) (triphenylphosphane) gold(I)]	1.7 ± 0.3	13 ± 1.12	2.9 ± 0.7	8 ± 0.71	2.6 ± 0.04		4.9 ± 1		6.6 ± 0.65	1.9 ± 0.1	8 ± 0.73	0.91 ± 0.09			
Nc1nc([S][Au][PH](c2ccccc2)(c2ccccc2)c2ccccc2)c2nc[nH]c2n1 [Complex 2, (2-Amino-1,7-dihydro-6H-purine-6-thiolato) (triphenylphosphane) gold(I)]	0.58 ± 0.01	2.2 ± 0.13	0.5 ± 0.1	4.4 ± 0.33	0.6 ± 0.05		0.8 ± 0.01		3.7 ± 0.37	0.3 ± 0.07	4.4 ± 0.32	1 ± 0.1			
CC[PH](CC)(CC)[Au][S]c1ncnc2[nH]cnc12 [Complex 3, (1,7-Dihydro-6H-purine-6-thiolato) (triethylphosphane) gold(I)]	3.6 ± 0.8	9.4 ± 0.53	1.5 ± 0.11	8.4 ± 0.62	6.8 ± 0.62		6.3 ± 0.3		10 ± 0.26	2.5 ± 0.32	6.4 ± 1.4	6.9 ± 0.47			
CC[PH](CC)(CC)[Au][S]c1nc(N)nc2[nH]cnc12 [Complex 4, (2-Amino-1,7-dihydro-6H-purine-6-thiolato) (triethylphosphane) gold(I)]	11 ± 0.5	21 ± 3.4	1.1 ± 0.08	16 ± 0.91	15 ± 4.1		25 ± 3.1		4.9 ± 0.43	12 ± 1	5.8 ± 1.7	7 ± 0.66	did not change noticeably		
CC[PH](CC)(CC)[Au][S]c1ncnc2c1ncn2[C@@H]1O[C@H](CO)[C@@H](O)[C@H]1O [Complex 7, (1,7-Dihydro-6H-purine-9-β-D-ribofuranosyl-6-thiolato) (triethylphosphane) gold(I)]	0.5 ± 0.03	2.1 ± 0.2	0.43 ± 0.02	3 ± 0.21	0.51 ± 0.05		1.6 ± 0.2	7 ± 0.62	1.2 ± 0.11	0.4 ± 0.04	2.2 ± 0.17	1.1 ± 0.11	did not change noticeably	even exceeded the effects of the three controls	
CC[PH](CC)(CC)[Au][S]c1nc(N)nc2c1ncn2[C@@H]1O[C@H](CO)[C@@H](O)[C@H]1O [Complex 8, (2-Amino-1,7-dihydro-6H-purine-9-β-D-ribofuranosyl-6-thiolato) (triethylphosphane) gold(I)]	1.8 ± 0.06	10 ± 0.83	1.7 ± 0.14	3.4 ± 0.33	2.4 ± 0.21		5.5 ± 0.3	7 ± 0.7	3.6 ± 0.34	0.7 ± 0.07	4.5 ± 0.34	1 ± 0.03			
CC[PH](CC)(CC)[Au][S]c1nc([S][Au][PH](CC)(CC)CC)c2nc[nH]c2n1 [Complex 9, (1,7-Dihydro-6H-purine-2,6-bisthiolato) (triethylphosphane) gold(I)]	3.7 ± 0.35			13.4 ± 1.2	17.6 ± 0.8		11.2 ± 0.78				11.1 ± 0.32				
CC[PH](CC)(CC)[Au][Se]c1ncnc2[nH]cnc12 [Complex 10, (1,7-Dihydro-6H-purine-6-selenolato) (triethylphosphane) gold(I)]															no change in the shift of the ^77Se NMR signal
